In ChEMBL document CHEMBL3885861, “Open TG-GATES”:

Organism: Rattus norvegicus
Experiment: Open TG-GATES - Regimen: Single
Format: toxicity, organism-based, Sprague-Dawley
Set-up: regimen Single, gender Male, age 6 weeks
Settings: in vivo, ip, 0 mg/kg, route intraperitoneal injection, dose level Control; for APTT / Bas / Eos / Fbg / Hb / Ht / Lym / MCH / MCHC / MCV / Mono / Neu / PT / Plat / RBC / Ret / WBC: tissue Blood; for KIDNEY_L / KIDNEY_R / KIDNEY_TOTAL: tissue Kidney; for LIVER: tissue Liver; for A/G / ALP / ALT / AST / BUN / CRE / Ca / Cl / DBIL / GLC / IP / K / LDH / Na / PL / RALB / TBIL / TC / TG / TP / gamma-GTP: tissue Plasma

CC(C)=CC(=O)C=C(C)C [PHORONE]
TERMINAL_BW (3 h): 224.3 g | APTT (3 h): 17.2 s | Bas (3 h): 0% | Eos (3 h): 1% | Fbg (3 h): 227.4 mg/dL | Hb (3 h): 13.5 g/dL | Ht (3 h): 40.2% | Lym (3 h): 71% | MCH (3 h): 22.1 pg | MCHC (3 h): 33.5% | MCV (3 h): 65.9 fL | Mono (3 h): 8.2% | Neu (3 h): 19.8% | PT (3 h): 12.2 s | Plat (3 h): 114.4 x10_4/uL | RBC (3 h): 609.2 x10_4/ul | Ret (3 h): 9.2% | WBC (3 h): 97 x10_2/uL | KIDNEY_L (3 h): 1 g | KIDNEY_R (3 h): 1 g | KIDNEY_TOTAL (3 h): 2 g | LIVER (3 h): 10.7 g | A/G (3 h): 1.9 | ALP (3 h): 863.8 IU/L | ALT (3 h): 35.2 IU/L | AST (3 h): 73.4 IU/L | BUN (3 h): 13.6 mg/dL | CRE (3 h): 0.5 mg/dL | Ca (3 h): 11.1 mg/dL | Cl (3 h): 106.2 meq/L | DBIL (3 h): 0.02 mg/dL | GLC (3 h): 195 mg/dL | IP (3 h): 9.9 mg/dL | K (3 h): 5.1 meq/L | LDH (3 h): 86 IU/L | Na (3 h): 139.6 meq/L | PL (3 h): 142.8 mg/dL | RALB (3 h): 3.6 g/dL | TBIL (3 h): 0.4 mg/dL | TC (3 h): 75.8 mg/dL | TG (3 h): 99 mg/dL | TP (3 h): 5.6 g/dL | gamma-GTP (3 h): 1.4 IU/L | TERMINAL_BW (6 h): 219.5 g | APTT (6 h): 17.4 s | Bas (6 h): 0% | Eos (6 h): 0.6% | Fbg (6 h): 223.8 mg/dL | Hb (6 h): 13.2 g/dL | Ht (6 h): 39.7% | Lym (6 h): 74.6% | MCH (6 h): 21.2 pg | MCHC (6 h): 33.2% | MCV (6 h): 63.9 fL | Mono (6 h): 4.4% | Neu (6 h): 20.4% | PT (6 h): 12.3 s | Plat (6 h): 118.6 x10_4/uL | RBC (6 h): 620.2 x10_4/ul | Ret (6 h): 9.1% | WBC (6 h): 102.1 x10_2/uL | KIDNEY_L (6 h): 0.9 g | KIDNEY_R (6 h): 0.9 g | KIDNEY_TOTAL (6 h): 1.9 g | LIVER (6 h): 9.7 g | A/G (6 h): 2 | ALP (6 h): 700.4 IU/L | ALT (6 h): 34.8 IU/L | AST (6 h): 72.8 IU/L | BUN (6 h): 12.6 mg/dL | CRE (6 h): 0.5 mg/dL | Ca (6 h): 10.6 mg/dL | Cl (6 h): 105.2 meq/L | DBIL (6 h): 0.024 mg/dL | GLC (6 h): 210.4 mg/dL | IP (6 h): 10.2 mg/dL | K (6 h): 4.7 meq/L | LDH (6 h): 65 IU/L | Na (6 h): 139 meq/L | PL (6 h): 137 mg/dL | RALB (6 h): 3.5 g/dL | TBIL (6 h): 0.4 mg/dL | TC (6 h): 77.8 mg/dL | TG (6 h): 50 mg/dL | TP (6 h): 5.2 g/dL | gamma-GTP (6 h): 1.2 IU/L
